Experimental data from patent US20230242544A1, “QUINAZOLINE COMPOUNDS, PREPARATION METHODS AND USES THEREOF” (INVENTISBIO CO., LTD., priority 2020, published 2023).
pKd: −log10 of the molar value.

Experiments:
Ba/F3_KRAS^G12D cells = Ba/F3_KRAS^G12D cells (Homo sapiens, UniProt P01116, G12D, cells depend on it); test: Ba/F3 KRAS G12D cell proliferation assay (CellTiter-Glo); format: cell-based; conditions: treated for 3 days, cell-titer Glo, cell growth inhibition, read-out: BaF3_KRAS^G12D IC50
Experimental: Ba/F3_KRAS^G12D cells (KYinno, China) were generated by transducing Ba/F3 parental cells with the recombinant KRAS^G12D lentivirus and followed by 1 ug/mL of puromycin selection and IL3 depletion. […] Cells were seeded at a density of 5×10^3 per well into 96-well plate and incubated overnight. Serial diluted compounds were added to each well. Cells were treated with the compounds for 3 days, after which cell-titer Glo reagent (Promega #G7572) was used to assess cell proliferation. The luminescence signal was then collected on Tecan Spark plate reader. […] Cell growth inhibition of IC50 is calculated with the equation of Y=Bottom+(Top−Bottom)/(1+10^((Log IC50−X)*Hill Slope))

[1] = target: recombinant human KRAS^G12D protein (Homo sapiens, UniProt P01116, G12D); test: Temperature-dependent Fluorescence (TdF) KRAS G12D protein binding assay; conditions: 6 μM KRAS^G12D protein, 10 μM compound, Sypro Orange; Kd calculated from the fluorescent shift
Experimental: The Temperature-dependent Fluorescence (TdF) assay was used to analyze binding affinity of compound to recombinant human KRAS^G12D protein. The TdF assay was conducted in the 96-well-based real-time fluorescence plate reader (ABI 7500 or Roche LightCycler 480). Fluorescent dye Sypro Orange (Sigma) was used to monitor the protein folding-unfolding transition. Protein-compound binding was gauged by the shift in the unfolding transition temperature (ΔTm) acquired with and without compound. Each reaction sample consists of 6 μM KRAS^G12D Protein, 10 μM compound, and Sypro Orange dye (in 1% DMSO) in 20 μL reaction buffer (25 mM HEPES pH 7.5, 150 mM NaCl, 10 mM MgCl2). […] Binding affinity (Kd value) was calculated based on the degree of fluorescent shift of the protein with and without compound.

recombinant human KRAS^G12D protein, sequence (P01116 1-188 isoform P01116-2 G12D): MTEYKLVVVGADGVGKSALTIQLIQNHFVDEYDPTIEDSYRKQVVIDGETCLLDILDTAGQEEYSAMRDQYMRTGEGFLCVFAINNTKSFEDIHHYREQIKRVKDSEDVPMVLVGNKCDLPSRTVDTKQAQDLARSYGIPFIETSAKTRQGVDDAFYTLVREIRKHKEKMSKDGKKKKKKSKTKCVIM
Ba/F3_KRAS^G12D cells, sequence (P01116 whole entry G12D): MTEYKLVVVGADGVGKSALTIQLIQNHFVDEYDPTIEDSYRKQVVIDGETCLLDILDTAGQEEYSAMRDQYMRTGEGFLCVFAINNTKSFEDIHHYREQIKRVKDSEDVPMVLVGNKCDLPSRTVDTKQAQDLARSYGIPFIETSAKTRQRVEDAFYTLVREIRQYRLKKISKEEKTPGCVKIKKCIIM

| Structure (SMILES) | GI50 (Ba/F3_KRAS^G12D cells) [µM] | pKd [1] |
| --- | --- | --- |
| Oc1cc(-c2c(Cl)cc3c(N4CC5CCC(C4)N5)nc(OC[C@]45CCCN4C[C@@H](F)C5)nc3c2F)c2ccccc2c1 (single isomer, unassigned) [Compound 106] | < 0.5 | > 6.30 |
| Oc1cc(-c2c(Cl)cc3c(N4CC5CCC(C4)N5)nc(OC[C@@]45CCCN4C[C@H](F)C5)nc3c2F)c2ccccc2c1 (single isomer, unassigned) [Compound 107] | < 0.5 | > 6.30 |
| Oc1cc(-c2c(Cl)cc3c(N4CC5CCC(C4)N5)nc(OC[C@@]45CCCN4C[C@H](F)C5)nc3c2F)c2ccccc2c1 (single isomer, unassigned) [Compound 108] | 0.5 to 5 | < 5.30 |
| Cc1cccc2cc(O)cc(-c3c(Cl)cc4c(N5CC6CCC(C5)N6)nc(OC[C@@]56CCCN5C[C@H](F)C6)nc4c3F)c12 (single isomer, unassigned) [Compound 117] | < 0.5 | > 6.30 |
| Cc1cccc2cc(O)cc(-c3c(Cl)cc4c(N5CC6CCC(C5)N6)nc(OC[C@@]56CCCN5C[C@H](F)C6)nc4c3F)c12 (single isomer, unassigned) [Compound 118] | < 0.5 | > 6.30 |
| N#Cc1cc2c(N3CC4CCC(C3)N4)nc(OC[C@@]34CCCN3C[C@H](F)C4)nc2c(F)c1-c1cc(O)cc2cccc(Cl)c12 (single isomer, unassigned) [Compound 119] | 0.5 to 5 | < 5.30 |
| N#Cc1cc2c(N3CC4CCC(C3)N4)nc(OC[C@@]34CCCN3C[C@H](F)C4)nc2c(F)c1-c1cc(O)cc2cccc(Cl)c12 (single isomer, unassigned) [Compound 120] | < 0.5 | > 6.30 |
| CCc1cccc2cc(O)cc(-c3c(Cl)cc4c(N5CC6CCC(C5)N6)nc(OC[C@@]56CCCN5C[C@H](F)C6)nc4c3F)c12 (single isomer, unassigned) [Compound 133] | < 0.5 | > 6.30 |
| CCc1cccc2cc(O)cc(-c3c(Cl)cc4c(N5CC6CCC(C5)N6)nc(OC[C@@]56CCCN5C[C@H](F)C6)nc4c3F)c12 (single isomer, unassigned) [Compound 134] | 0.5 to 5 | < 5.30 |
| Oc1cc(-c2c(Cl)cc3c(N4CC5CCC(C4)N5)nc(OC[C@@]45CCCN4C[C@H](F)C5)nc3c2F)c2c(Cl)c(F)ccc2c1 (single isomer, unassigned) [Compound 138] | < 0.5 | > 6.30 |
| Oc1cc(-c2c(Cl)cc3c(N4CC5CCC(C4)N5)nc(OC[C@@]45CCCN4C[C@H](F)C5)nc3c2F)c2c(Cl)c(F)ccc2c1 (single isomer, unassigned) [Compound 139] | < 0.5 | > 6.30 |
| C#Cc1c(F)ccc2cc(O)cc(-c3c(Cl)cc4c(N5CC6CCC(C5)N6)nc(OC[C@@]56CCCN5C[C@H](F)C6)nc4c3F)c12 (single isomer, unassigned) [Compound 154] | < 0.5 | > 6.30 |
| CN1CCC[C@H]1COc1nc(N2CCNCC2)c2cc(Cl)c(-c3cc(O)cc4ccccc34)c(F)c2n1 [Compound 1] | 0.5 to 5 | < 5.30 |
| CN1CCC[C@H]1COc1nc(N2CC3CCC(C2)N3)c2cc(Cl)c(-c3cc(O)cc4ccccc34)c(F)c2n1 [Compound 2] | 0.5 to 5 | > 6.30 |
| C[C@H]1CNCCN1c1nc(OC[C@@H]2CCCN2C)nc2c(F)c(-c3cc(O)cc4ccccc34)c(Cl)cc12 [Compound 3] | 0.5 to 5 | < 5.30 |
| CN1CCC[C@H]1COc1nc(N2CC3CCC(C2)N3)c2cc(Cl)c(-c3c(O)cccc3F)c(F)c2n1 [Compound 4] | > 5 | 5.30 to 6.30 |
| CN(C)CCCOc1nc(N2CC3CCC(C2)N3)c2cc(Cl)c(-c3cc(O)cc4ccccc34)c(F)c2n1 [Compound 5] | 0.5 to 5 | 5.30 to 6.30 |
| CN(C)CCCOc1nc(N2CC3CCC(C2)N3)c2cc(Cl)c(-c3cccc4cccc(Cl)c34)c(F)c2n1 [Compound 6] | 0.5 to 5 | < 5.30 |
| CN1CCC[C@H]1COc1nc(N2CC3CCC(C2)N3)c2cc(Cl)c(-c3cccc4cccc(Cl)c34)c(F)c2n1 [Compound 7] | 0.5 to 5 | < 5.30 |
| CN(C)CCCOc1nc(N2CC3CCC(C2)N3)c2cc(Cl)c(-c3c(O)cccc3F)c(F)c2n1 [Compound 8] | > 5 | < 5.30 |

| Structure (SMILES) | GI50 (Ba/F3_KRAS^G12D cells) [µM] | pKd [1] |
| --- | --- | --- |
| CN1CCC[C@H]1COc1nc(N2CC3CCCC(C2)N3)c2cc(Cl)c(-c3cc(O)cc4cccc(Cl)c34)c(F)c2n1 [Compound 11] | 0.5 to 5 | 5.30 to 6.30 |
| CN1CCC[C@H]1COc1nc(N2CCNC(CC(N)=O)C2)c2cc(Cl)c(-c3cc(O)cc4ccccc34)c(F)c2n1 (some centres unmarked) [Compound 12] | > 5 | < 5.30 |
| Nc1cccc(F)c1-c1c(Cl)cc2c(N3CCNCC3)nc(OCC34CCCN3CCC4)nc2c1F [Compound 14] | > 5 | < 5.30 |
| CNC1CCN(c2nc(OC[C@@H]3CCCN3C)nc3c(F)c(-c4cc(O)cc5cccc(Cl)c45)c(Cl)cc23)C1 (some centres unmarked) [Compound 16] | 0.5 to 5 | < 5.30 |
| CN1CCC[C@H]1COc1nc(N2CC3(CNC3)C2)c2cc(Cl)c(-c3cc(O)cc4cccc(Cl)c34)c(F)c2n1 [Compound 17] | > 5 | < 5.30 |
| CN1CCC[C@H]1COc1nc(N2CCC3NCC32)c2cc(Cl)c(-c3cc(O)cc4cccc(Cl)c34)c(F)c2n1 (some centres unmarked) [Compound 18] | 0.5 to 5 | < 5.30 |
| CN1CCC[C@H]1COc1nc(N2CC3(CCNC3)C2)c2cc(Cl)c(-c3cc(O)cc4cccc(Cl)c34)c(F)c2n1 [Compound 19] | > 5 | < 5.30 |
| C[C@@H]1CN(c2nc(OC[C@@H]3CCCN3C)nc3c(F)c(-c4cc(O)cc5cccc(Cl)c45)c(Cl)cc23)[C@@H](C)CN1 [Compound 21] | 0.5 to 5 | < 5.30 |
| C[C@H]1CNCCN1c1nc(OC[C@@H]2CCCN2C)nc2c(F)c(-c3cc(O)cc4cccc(Cl)c34)c(Cl)cc12 [Compound 22] | 0.5 to 5 | < 5.30 |
| CN1CCC[C@H]1COc1nc(N2CCNCC23CC3)c2cc(Cl)c(-c3cc(O)cc4cccc(Cl)c34)c(F)c2n1 [Compound 23] | 0.5 to 5 | 5.30 to 6.30 |
| CN1CCC[C@H]1COc1nc(N2C[C@H]3NCC[C@H]32)c2cc(Cl)c(-c3cc(O)cc4cccc(Cl)c34)c(F)c2n1 [Compound 25] | 0.5 to 5 | < 5.30 |
| CN1CCC[C@H]1COc1nc(N2CC3CCC(C2)N3)c2cc(Cl)c(-c3nc(N)cc4ccccc34)c(F)c2n1 [Compound 27] | 0.5 to 5 | < 5.30 |
| Fc1c(-c2cccc3cccc(Cl)c23)c(Cl)cc2c(N3CCNCC3)nc(OCC34CCCN3CCC4)nc12 [Compound 28] | < 0.5 | < 5.30 |
| Oc1cc(-c2c(Cl)cc3c(N4CCNCC4)nc(OCC45CCCN4CCC5)nc3c2F)c2ccccc2c1 [Compound 29] | 0.5 to 5 | < 5.30 |
| CN1CCC[C@H]1COc1nc(N2CC3CCC(C2)N3)c2cc(Cl)c(-c3c(N)cccc3F)c(F)c2n1 [Compound 31] | 0.5 to 5 | < 5.30 |
| Nc1cccc(F)c1-c1c(Cl)cc2c(N3CC4CCC(C3)N4)nc(OCC34CCCN3CCC4)nc2c1F [Compound 32] | > 5 | 5.30 to 6.30 |
| Oc1cc(-c2c(Cl)cc3c(N4C5CCC4CNC5)nc(OCC45CCCN4CCC5)nc3c2F)c2ccccc2c1 [Compound 33] | 0.5 to 5 | > 6.30 |
| CN1CC(F)(F)CC1COc1nc(N2CC3CCC(C2)N3)c2cc(Cl)c(-c3cc(O)cc4cccc(Cl)c34)c(F)c2n1 (centres unmarked) [Compound 35] | 0.5 to 5 | 5.30 to 6.30 |
| C[C@@H]1CN(c2nc(OCC3CN(C)C3)nc3c(F)c(-c4cc(O)cc5ccccc45)c(Cl)cc23)[C@@H](C)CN1 [Compound 36] | 0.5 to 5 | < 5.30 |
| CN(C)C1CN(c2nc(N3CC4CCC(C3)N4)c3cc(Cl)c(-c4cc(O)cc5ccccc45)c(F)c3n2)C1 [Compound 39] | 0.5 to 5 | < 5.30 |
